In patent US7872004B2, “6-(heterocyclyl-substituted benzyl)-4-oxoquinoline compound and use thereof as HIV integrase inhibitor” (Japan Tobacco Inc., priority 2006, dated 2011):

Target: T1, HIV integrase (Human immunodeficiency virus type 1 group M subtype B, UniProt P12497, F1332H)
T1 construct: HIV integrase full length gene; made in house; host or cells: Escherichia coli BL21(DE3)
Test: Determination of enzyme (HIV integrase) inhibitory activity
Assay type: biochemical, HIV (Human Immunodeficiency Virus (type 1))
Conditions: recombinant integrase protein (F185H), strand transfer plate assay, absorbance at 450 nm
Source text: The following explains evaluation methods of the HIV integrase inhibitory activity of the compound of the present invention.
(i) Construction of Recombinant Integrase Gene Expression System
HIV integrase full length gene (J. Virol., 67, 425-437 (1993)) in which phenylalanine at codon 185 was substituted by histidine, was inserted between the restriction enzyme NdeI and XhoI sites of plasmid pET21a(+) (Novagen), whereby an integrase expression vector pET21a-IN-F185H was constructed.
(ii) Production and Purification of Integrase Protein
Escherichia coli recombinant BL21(DE3) transformed with plasmid pET21a-IN-F185H obtained in (i) was shake cultured at 30° C. in a liquid medium containing ampicillin. When the culture reached the logarithmic growth phase, isopropyl-β-D-thiogalactopyranoside was added to promote expression of integrase gene. The culture was continued for 3 hr to promote accumulation of the integrase protein. The recombinant E. coli was collected in pellets by centrifugal separation and preserved at −80° C.
The E. coli was suspended in Lysis buffer ([…] HEPES (pH 7.5), 5 mM DTT, 10 mM CHAPS, 10% glycerol) containing 1M sodium chloride and subjected to repeat pressurization and depressurization for rupture, and centrifugal separation at 4° C., 40,000×g, 60 min to recover a water-soluble fraction (supernatant). This was diluted 10-fold with Lysis buffer free of sodium chloride, mixed with SP-Sepharose (GE healthcare Bioscience) and stirred at 4° C. for 60 min to allow adsorption of integrase protein to the resin. The resin was washed with Lysis buffer containing 100 mM sodium chloride and the integrase protein was eluted with Lysis buffer containing 1M sodium chloride.
The eluted integrase protein solution was subjected to a Superdex 75 (GE healthcare Bioscience) column for gel filtration. The protein was eluted with Lysis buffer containing 1M sodium chloride.
The obtained fractions of the integrase protein were collected and preserved at −80° C.
(iii) Preparation of DNA Solution
The following DNA synthesized by Greiner or FASMAC was dissolved in TE buffer (10 mM Tris-hydrochloric acid (pH 8.0), 1 mM EDTA) and mixed with donor DNA, target DNA, and each complementary strand (+ and − strands) to 1 μM. The mixture was heated at 95° C. for 5 min, 80° C. for 10 min, 70° C. for 10 min, 60° C. for 10 min, 50° C. for 10 min and 40° C. for 10 min and kept at 25° C. to give a double stranded DNA, which was used for the test.
(iv) Determination of Enzyme (HIV Integrase) Inhibitory Activity
The donor DNA was diluted with TE buffer to 10 nM (or 5 nM), of which 50 μl was added to each well of streptavidin-coated microtiter plate (Roche) and allowed to adsorb at 37° C. for 60 min. The plate was washed with phosphate buffer (Dulbecco's PBS, Sanko Junyaku Co., Ltd.) containing 0.1% Tween 20 and phosphate buffer. Then, an enzyme reaction mixture (70 μl), a test substance (10 μl) diluted with the enzyme reaction mixture and 100 μg/ml (or 64 μg/ml (2 μM)) integrase protein (10 μl) were added to each well and reacted at 37° C. for 60 min.
Composition of the enzyme reaction mixture: 30 mM MOPS (3-morpholinopropanesulfonic acid), 5 mM magnesium chloride, 3 mM DTT (dithiothreitol), 0.1 mg/ml BSA (bovine serum albumin), 5% glycerol, 10% DMSO (dimethyl sulfoxide), 0.01% Tween 20.
Then, 50 nM (or 25 nM) target DNA (10 μl) was added, reacted at 37° C. for 10 min and washed with phosphate buffer containing 0.1% Tween 20 to stop the reaction.
Then, 100 mU/ml peroxidase labeled anti-digoxigenin antibody solution (Roche, 100 μl) was added, and the mixture was reacted at 37° C. for 60 min, followed by washing with phosphate buffer containing 0.1% Tween 20.
A peroxidase color solution (Bio Rad, 100 μl) was added and allowed to react at room temperature for 4 min (or 3 min). The color reaction was stopped by adding IN sulfuric acid (100 μl). The absorbance at 450 nm was measured. […]

| Compound | IC50 |
| --- | --- |
| CCOC[C@@H](CO)n1cc(C(=O)O)c(=O)c2cc(Cc3cc(N4CCOCC4)cc(Cl)c3F)c(CC)cc21 [Example 1, 6-[3-chloro-2-fluoro-5-(morpholin-4-yl)benzyl]-1-((R)-1-ethoxymethyl-2-hydroxyethyl)-7-ethyl-4-oxo-1,4-dihydroquinoline-3-carboxylic acid] | < 10 nM |
| COc1cc2c(cc1Cc1cc(N3CCCC3=O)cc(Cl)c1F)c(=O)c(C(=O)O)cn2[C@H](CO)C(C)C [Example 2, 6-[3-chloro-2-fluoro-5-(2-oxopyrrolidin-1-yl)benzyl]-1-((S)-1-hydroxymethyl-2-methylpropyl)-7-methoxy-4-oxo-1,4-dihydroquinoline-3-carboxylic acid] | < 10 nM |
| COc1cc2c(cc1Cc1cc(N3CCCC3)cc(Cl)c1F)c(=O)c(C(=O)O)cn2[C@H](CO)C(C)C [Example 3, 6-[3-chloro-2-fluoro-5-(pyrrolidin-1-yl)benzyl]-1-((S)-1-hydroxymethyl-2-methylpropyl)-7-methoxy-4-oxo-1,4-dihydroquinoline-3-carboxylic acid] | < 10 nM |
| COc1cc2c(cc1Cc1cc(N3CCOC3=O)cc(Cl)c1F)c(=O)c(C(=O)O)cn2[C@H](CO)C(C)C [Example 4, 6-[3-chloro-2-fluoro-5-(2-oxooxazolidin-3-yl)benzyl]-1-((S)-1-hydroxymethyl-2-methylpropyl)-7-methoxy-4-oxo-1,4-dihydroquinoline-3-carboxylic acid] | < 10 nM |
| COc1cc2c(cc1Cc1cc(N3CCOCC3)cc(Cl)c1F)c(=O)c(C(=O)O)cn2[C@H](CO)C(C)C [Example 5, 6-[3-chloro-2-fluoro-5-(morpholin-4-yl)benzyl]-1-((S)-1-hydroxymethyl-2-methylpropyl)-7-methoxy-4-oxo-1,4-dihydroquinoline-3-carboxylic acid] | < 10 nM |
| COc1cc2c(cc1Cc1cc(N3CCCCC3)cc(Cl)c1F)c(=O)c(C(=O)O)cn2[C@H](CO)C(C)C [Example 6, 6-[3-chloro-2-fluoro-5-(piperidin-1-yl)benzyl]-1-((S)-1-hydroxymethyl-2-methylpropyl)-7-methoxy-4-oxo-1,4-dihydroquinoline-3-carboxylic acid] | < 10 nM |
| COc1cc2c(cc1Cc1cc(N3CCCCC3=O)cc(Cl)c1F)c(=O)c(C(=O)O)cn2[C@H](CO)C(C)C [Example 7, 6-[3-chloro-2-fluoro-5-(2-oxopiperidin-1-yl)benzyl]-1-((S)-1-hydroxymethyl-2-methylpropyl)-7-methoxy-4-oxo-1,4-dihydroquinoline-3-carboxylic acid] | < 10 nM |
| COc1cc2c(cc1Cc1cc(N3CC[C@@H](O)C3)cc(Cl)c1F)c(=O)c(C(=O)O)cn2[C@H](CO)C(C)C [Example 8, 6-[3-chloro-2-fluoro-5-((R)-3-hydroxypyrrolidin-1-yl)benzyl]-1-((S)-1-hydroxymethyl-2-methylpropyl)-7-methoxy-4-oxo-1,4-dihydroquinoline-3-carboxylic acid] | < 10 nM |
| COc1cc2c(cc1Cc1cc(N3CC[C@H](O)C3)cc(Cl)c1F)c(=O)c(C(=O)O)cn2[C@H](CO)C(C)C [Example 9, 6-[3-chloro-2-fluoro-5-((S)-3-hydroxypyrrolidin-1-yl)benzyl]-1-((S)-1-hydroxymethyl-2-methylpropyl)-7-methoxy-4-oxo-1,4-dihydroquinoline-3-carboxylic acid] | < 10 nM |
| COc1cc2c(cc1Cc1cc(N3CCC(=O)N3C)cc(Cl)c1F)c(=O)c(C(=O)O)cn2[C@H](CO)C(C)C [Example 10, 6-[3-chloro-2-fluoro-5-(2-methyl-3-oxopyrazolidin-1-yl)benzyl]-1-((S)-1-hydroxymethyl-2-methylpropyl)-7-methoxy-4-oxo-1,4-dihydroquinoline-3-carboxylic acid] | < 10 nM |
| COc1cc2c(cc1Cc1cc(N3CCN(C(C)=O)CC3)cc(Cl)c1F)c(=O)c(C(=O)O)cn2[C@H](CO)C(C)C [Example 11, 6-[5-(4-acetylpiperazin-1-yl)-3-chloro-2-fluorobenzyl]-1-((S)-1-hydroxymethyl-2-methylpropyl)-7-methoxy-4-oxo-1,4-dihydroquinoline-3-carboxylic acid] | < 10 nM |
| COc1cc2c(cc1Cc1cc(N3CCC(F)(F)C3)cc(Cl)c1F)c(=O)c(C(=O)O)cn2[C@H](CO)C(C)C [Example 12, 6-[3-chloro-5-(3,3-difluoropyrrolidin-1-yl)-2-fluorobenzyl]-1-((S)-1-hydroxymethyl-2-methylpropyl)-7-methoxy-4-oxo-1,4-dihydroquinoline-3-carboxylic acid] | < 10 nM |
| COc1cc2c(cc1Cc1cc(N3CC[C@@H](F)C3)cc(Cl)c1F)c(=O)c(C(=O)O)cn2[C@H](CO)C(C)C [Example 13, 6-[3-chloro-2-fluoro-5-((R)-3-fluoropyrrolidin-1-yl)benzyl]-1-((S)-1-hydroxymethyl-2-methylpropyl)-7-methoxy-4-oxo-1,4-dihydroquinoline-3-carboxylic acid] | < 10 nM |
| COc1cc2c(cc1Cc1cc(N3CC[C@H](F)C3)cc(Cl)c1F)c(=O)c(C(=O)O)cn2[C@H](CO)C(C)C [Example 14, 6-[3-chloro-2-fluoro-5-((S)-3-fluoropyrrolidin-1-yl)benzyl]-1-((S)-1-hydroxymethyl-2-methylpropyl)-7-methoxy-4-oxo-1,4-dihydroquinoline-3-carboxylic acid] | < 10 nM |
| COc1cc2c(cc1Cc1cc(N3CCOCC3)cc(Cl)c1F)c(=O)c(C(=O)O)cn2[C@H](CO)[C@@H](C)OC [Example 15, 6-[3-chloro-2-fluoro-5-(morpholin-4-yl)benzyl]-1-((1R,2R)-1-hydroxymethyl-2-methoxypropyl)-7-methoxy-4-oxo-1,4-dihydroquinoline-3-carboxylic acid] | < 10 nM |
| COc1cc2c(cc1Cc1cc(N3CCOCC3)c(F)c(Cl)c1F)c(=O)c(C(=O)O)cn2[C@H](CO)C(C)C [Example 16, 6-[3-chloro-2,4-difluoro-5-(morpholin-4-yl)benzyl]-1-((S)-1-hydroxymethyl-2-methylpropyl)-7-methoxy-4-oxo-1,4-dihydroquinoline-3-carboxylic acid] | < 10 nM |
| COc1cc2c(cc1Cc1cc(N3CCOCC3)cc(Cl)c1F)c(=O)c(C(=O)O)cn2[C@H](CO)C(C)(C)C [Example 17, 6-[3-chloro-2-fluoro-5-(morpholin-4-yl)benzyl]-1-((S)-1-hydroxymethyl-2,2-dimethylpropyl)-7-methoxy-4-oxo-1,4-dihydroquinoline-3-carboxylic acid] | < 10 nM |
| CCc1cc2c(cc1Cc1cc(N3CCOCC3)cc(Cl)c1F)c(=O)c(C(=O)O)cn2[C@H](CO)C(C)(C)C [Example 18, 6-[3-chloro-2-fluoro-5-(morpholin-4-yl)benzyl]-7-ethyl-1-((S)-1-hydroxymethyl-2,2-dimethylpropyl)-4-oxo-1,4-dihydroquinoline-3-carboxylic acid] | < 10 nM |
| CCOC[C@@H](CO)n1cc(C(=O)O)c(=O)c2cc(Cc3cc(N4CCOCC4)cc(Cl)c3F)c(OC)cc21 [Example 19, 6-[3-chloro-2-fluoro-5-(morpholin-4-yl)benzyl]-1-((R)-1-ethoxymethyl-2-hydroxyethyl)-7-methoxy-4-oxo-1,4-dihydroquinoline-3-carboxylic acid] | < 10 nM |
